Data taken from patent publication US12227500B2, “Substituted pyrrolo[2,3-b]pyridines for suppressing toxic endoplasmic reticulum stress” (THE TRUSTEES OF COLUMBIA UNIVERSITY IN THE CITY OF NEW YORK, priority 2018, dated 2025).
Like-named read-outs stand apart in the source and are kept apart here.

Tests used:
Test in all cases: Radiolabeled ATP kinase assay, panel of 371 kinases (Table S6)
Type in all cases: biochemical
[1] = target: T1, panel of 371 human kinases (Homo sapiens, UniProt P14616); conditions: IRR/INSRR; 0.1 μM; 10 μM ATP; read-out: % Enzyme Activity (relative to DMSO controls)
T1 construct: purchased Reaction Biology Corp
Excerpt: (§1) ; FIG. 38C). […]. Further targeted analyses, such as genetic knock-down or knock-out, may be warranted to parse the role of these additional kinases in our model of neurodegeneration.

[2] = target: T2, panel of 371 human kinases (Homo sapiens, UniProt P50750); conditions: 0.1 μM, 10 μM ATP, read-out: % Enzyme Activity (relative to DMSO controls)
T2 construct: purchased Reaction Biology Corp
T2 sequence (P50750 whole entry): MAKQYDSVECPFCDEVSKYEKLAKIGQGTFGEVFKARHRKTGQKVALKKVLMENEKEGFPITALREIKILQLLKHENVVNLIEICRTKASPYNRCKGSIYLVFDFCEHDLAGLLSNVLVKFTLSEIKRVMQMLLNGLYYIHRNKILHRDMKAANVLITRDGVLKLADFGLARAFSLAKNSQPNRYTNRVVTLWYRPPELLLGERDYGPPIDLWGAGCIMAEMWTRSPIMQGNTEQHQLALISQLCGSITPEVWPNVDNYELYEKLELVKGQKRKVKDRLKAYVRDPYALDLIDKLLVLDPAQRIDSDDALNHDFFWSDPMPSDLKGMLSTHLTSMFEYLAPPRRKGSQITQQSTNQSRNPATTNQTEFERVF
Excerpt: as §1

[3] = target: T3, panel of 371 human kinases (Homo sapiens, UniProt O75116); conditions: ROCK2; 0.1 μM; 10 μM ATP; read-out: % Enzyme Activity (relative to DMSO controls)
T3 construct: purchased Reaction Biology Corp
Excerpt: as §1

[4] = target: T4, panel of 371 human kinases (Homo sapiens, UniProt P04629); conditions: TRKA; 0.1 μM; 10 μM ATP; read-out: % Enzyme Activity (relative to DMSO controls)
T4 construct: purchased Reaction Biology Corp
Excerpt: as §1

[5] = target: T5, panel of 371 human kinases (Homo sapiens, UniProt Q15375); conditions: EPHA7; 0.1 μM; 10 μM ATP; read-out: % Enzyme Activity (relative to DMSO controls)
T5 construct: purchased Reaction Biology Corp
Excerpt: as §1

[6] = target: T6, panel of 371 human kinases (Homo sapiens, UniProt P30291); conditions: WEE1; 0.1 μM; 10 μM ATP; read-out: % Enzyme Activity (relative to DMSO controls)
T6 construct: purchased Reaction Biology Corp
T6 sequence (P30291 whole entry): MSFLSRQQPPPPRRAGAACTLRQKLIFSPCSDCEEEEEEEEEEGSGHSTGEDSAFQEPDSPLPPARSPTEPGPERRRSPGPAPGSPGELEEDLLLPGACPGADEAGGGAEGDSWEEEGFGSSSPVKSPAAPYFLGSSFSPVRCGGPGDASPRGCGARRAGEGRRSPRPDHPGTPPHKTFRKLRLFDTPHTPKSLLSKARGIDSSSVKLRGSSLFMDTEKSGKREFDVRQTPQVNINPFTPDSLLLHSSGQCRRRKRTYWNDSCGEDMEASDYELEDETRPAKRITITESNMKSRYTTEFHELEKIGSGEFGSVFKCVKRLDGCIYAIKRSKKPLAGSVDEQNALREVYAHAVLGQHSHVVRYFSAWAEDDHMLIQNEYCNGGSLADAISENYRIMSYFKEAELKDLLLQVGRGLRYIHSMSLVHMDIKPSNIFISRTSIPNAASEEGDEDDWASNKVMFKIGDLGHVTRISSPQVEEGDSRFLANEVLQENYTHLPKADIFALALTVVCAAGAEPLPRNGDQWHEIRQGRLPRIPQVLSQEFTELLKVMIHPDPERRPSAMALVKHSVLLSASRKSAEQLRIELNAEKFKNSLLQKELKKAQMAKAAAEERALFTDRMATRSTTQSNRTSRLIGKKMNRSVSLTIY
Excerpt: as §1

[7] = target: T7, panel of 371 human kinases (Homo sapiens, UniProt P00519); conditions: ABL1; 0.1 μM; 10 μM ATP; read-out: % Enzyme Activity (relative to DMSO controls)
T7 construct: purchased Reaction Biology Corp
Excerpt: as §1

[8] = target: T8, panel of 371 human kinases (Homo sapiens, UniProt Q13555); conditions: CAMK2g; 0.1 μM; 10 μM ATP; read-out: % Enzyme Activity (relative to DMSO controls)
T8 construct: purchased Reaction Biology Corp
Excerpt: as §1

[9] = target: T9, panel of 371 human kinases (Homo sapiens, UniProt Q00526); conditions: 0.1 μM, 10 μM ATP, read-out: % Enzyme Activity (relative to DMSO controls)
T9 construct: purchased Reaction Biology Corp
T9 sequence (Q00526 whole entry): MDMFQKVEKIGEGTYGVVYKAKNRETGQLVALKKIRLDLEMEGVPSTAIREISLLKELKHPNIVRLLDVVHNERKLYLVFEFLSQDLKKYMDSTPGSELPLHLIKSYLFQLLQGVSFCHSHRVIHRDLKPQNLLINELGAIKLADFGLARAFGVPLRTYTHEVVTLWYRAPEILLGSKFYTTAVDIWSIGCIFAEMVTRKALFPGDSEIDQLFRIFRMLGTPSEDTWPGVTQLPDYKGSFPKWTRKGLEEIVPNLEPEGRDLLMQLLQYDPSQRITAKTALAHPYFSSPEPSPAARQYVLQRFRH
Excerpt: as §1

[10] = target: T10, panel of 371 human kinases (Homo sapiens, UniProt Q05655); conditions: PKCd; 0.1 μM; 10 μM ATP; read-out: % Enzyme Activity (relative to DMSO controls)
T10 construct: purchased Reaction Biology Corp
Excerpt: as §1

[11] = target: T11, panel of 371 human kinases (Homo sapiens, UniProt Q9UBE8); conditions: NLK; 0.1 μM; 10 μM ATP; read-out: % Enzyme Activity (relative to DMSO controls)
T11 construct: purchased Reaction Biology Corp
T11 sequence (Q9UBE8 whole entry): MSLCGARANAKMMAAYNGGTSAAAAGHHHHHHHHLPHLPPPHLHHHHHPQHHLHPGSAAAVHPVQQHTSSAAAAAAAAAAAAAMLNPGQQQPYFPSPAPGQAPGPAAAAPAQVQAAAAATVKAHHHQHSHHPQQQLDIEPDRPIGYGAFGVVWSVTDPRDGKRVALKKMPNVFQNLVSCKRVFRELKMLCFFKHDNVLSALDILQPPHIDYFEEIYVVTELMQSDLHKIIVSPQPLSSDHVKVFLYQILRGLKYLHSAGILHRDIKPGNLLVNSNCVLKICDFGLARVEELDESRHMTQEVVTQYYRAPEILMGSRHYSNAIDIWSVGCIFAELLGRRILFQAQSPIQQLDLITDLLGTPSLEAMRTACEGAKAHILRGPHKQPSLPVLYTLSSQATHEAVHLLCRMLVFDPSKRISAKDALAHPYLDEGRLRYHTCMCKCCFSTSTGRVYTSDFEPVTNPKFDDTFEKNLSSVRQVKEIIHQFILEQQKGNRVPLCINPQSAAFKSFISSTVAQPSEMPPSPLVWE
Excerpt: as §1

[12] = target: T12, panel of 371 human kinases (Homo sapiens, UniProt P06213); conditions: IR; 0.1 μM; 10 μM ATP; read-out: % Enzyme Activity (relative to DMSO controls)
T12 construct: purchased Reaction Biology Corp
T12 sequence (P06213 28-1382): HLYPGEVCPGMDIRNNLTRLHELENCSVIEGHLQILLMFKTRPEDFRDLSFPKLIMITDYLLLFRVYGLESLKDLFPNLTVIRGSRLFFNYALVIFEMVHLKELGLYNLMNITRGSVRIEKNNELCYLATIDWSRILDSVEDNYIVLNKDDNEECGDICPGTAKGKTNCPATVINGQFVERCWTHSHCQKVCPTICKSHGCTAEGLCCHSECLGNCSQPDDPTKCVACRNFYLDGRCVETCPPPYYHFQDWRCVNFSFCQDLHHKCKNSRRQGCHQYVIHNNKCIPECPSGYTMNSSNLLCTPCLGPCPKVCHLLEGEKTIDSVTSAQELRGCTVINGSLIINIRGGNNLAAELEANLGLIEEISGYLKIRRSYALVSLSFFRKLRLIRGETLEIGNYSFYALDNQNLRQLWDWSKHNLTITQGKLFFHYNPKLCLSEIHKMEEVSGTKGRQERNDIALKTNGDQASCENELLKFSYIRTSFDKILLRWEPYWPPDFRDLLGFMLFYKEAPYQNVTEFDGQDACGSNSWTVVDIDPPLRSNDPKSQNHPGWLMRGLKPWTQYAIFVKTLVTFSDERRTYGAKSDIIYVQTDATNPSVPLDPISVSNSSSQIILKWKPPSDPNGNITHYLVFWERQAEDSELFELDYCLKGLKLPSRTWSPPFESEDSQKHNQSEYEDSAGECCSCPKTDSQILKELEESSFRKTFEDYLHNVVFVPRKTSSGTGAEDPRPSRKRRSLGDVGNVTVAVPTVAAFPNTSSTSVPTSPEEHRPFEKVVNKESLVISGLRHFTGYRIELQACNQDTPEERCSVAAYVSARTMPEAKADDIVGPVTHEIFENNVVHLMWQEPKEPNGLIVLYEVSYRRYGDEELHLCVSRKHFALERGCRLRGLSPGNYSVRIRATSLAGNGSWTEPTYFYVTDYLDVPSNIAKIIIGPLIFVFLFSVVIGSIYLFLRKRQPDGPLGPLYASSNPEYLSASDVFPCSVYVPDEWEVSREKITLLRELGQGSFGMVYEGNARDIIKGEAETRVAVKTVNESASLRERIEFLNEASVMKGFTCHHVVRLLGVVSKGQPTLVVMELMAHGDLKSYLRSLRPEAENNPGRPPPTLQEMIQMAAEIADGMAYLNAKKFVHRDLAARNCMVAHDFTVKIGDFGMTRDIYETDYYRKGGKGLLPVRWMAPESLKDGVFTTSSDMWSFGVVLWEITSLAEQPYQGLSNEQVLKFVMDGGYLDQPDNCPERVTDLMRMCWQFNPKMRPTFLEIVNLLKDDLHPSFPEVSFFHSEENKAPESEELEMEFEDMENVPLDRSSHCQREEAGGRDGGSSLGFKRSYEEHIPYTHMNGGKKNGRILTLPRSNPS
Excerpt: as §1

[13] = target: T13, panel of 371 human kinases (Homo sapiens, UniProt P46734); conditions: MEK3; 0.1 μM; 10 μM ATP; read-out: % Enzyme Activity (relative to DMSO controls)
T13 construct: purchased Reaction Biology Corp
Excerpt: as §1

[14] = target: T14, panel of 371 human kinases (Homo sapiens, UniProt Q15569); conditions: TESK1; 0.1 μM; 10 μM ATP; read-out: % Enzyme Activity (relative to DMSO controls)
T14 construct: purchased Reaction Biology Corp
Excerpt: as §1

[15] = target: T15, panel of 371 human kinases (Homo sapiens, UniProt P30530); conditions: AXL; 0.1 μM; 10 μM ATP; read-out: % Enzyme Activity (relative to DMSO controls)
T15 construct: purchased Reaction Biology Corp
Excerpt: as §1

[16] = target: T16, panel of 371 human kinases (Homo sapiens, UniProt Q96L34); conditions: MARK4; 0.1 μM; 10 μM ATP; read-out: % Enzyme Activity (relative to DMSO controls)
T16 construct: purchased Reaction Biology Corp
Excerpt: as §1

[17] = target: T17, panel of 371 human kinases (Homo sapiens, UniProt O15146); conditions: MUSK; 0.1 μM; 10 μM ATP; read-out: % Enzyme Activity (relative to DMSO controls)
T17 construct: purchased Reaction Biology Corp
Excerpt: as §1

[18] = target: T18, panel of 371 human kinases (Homo sapiens, UniProt Q8WXR4); conditions: MYO3b; 0.1 μM; 10 μM ATP; read-out: % Enzyme Activity (relative to DMSO controls)
T18 construct: purchased Reaction Biology Corp
Excerpt: as §1

[19] = target: T19, panel of 371 human kinases (Homo sapiens, UniProt Q9UBS0); conditions: p70S6Kb/RPS6KB2; 0.1 μM; 10 μM ATP; read-out: % Enzyme Activity (relative to DMSO controls)
T19 construct: purchased Reaction Biology Corp
Excerpt: as §1

[20] = target: T20, panel of 371 human kinases (Homo sapiens, UniProt Q96RR4); conditions: CAMKK2; 0.1 μM; 10 μM ATP; read-out: % Enzyme Activity (relative to DMSO controls)
T20 construct: purchased Reaction Biology Corp
Excerpt: as §1

[21] = target: T21, panel of 371 human kinases (Homo sapiens, UniProt Q96PY6); conditions: NEK1; 0.1 μM; 10 μM ATP; read-out: % Enzyme Activity (relative to DMSO controls)
T21 construct: purchased Reaction Biology Corp
Excerpt: as §1

[22] = target: T22, panel of 371 human kinases (Homo sapiens, UniProt Q16584); conditions: for remaining activity at 0.1 µM: MLK3/MAP3K11, 10 μM ATP, read-out: % Enzyme Activity (relative to DMSO controls)
T22 construct: purchased Reaction Biology Corp
T22 sequence (Q16584 whole entry): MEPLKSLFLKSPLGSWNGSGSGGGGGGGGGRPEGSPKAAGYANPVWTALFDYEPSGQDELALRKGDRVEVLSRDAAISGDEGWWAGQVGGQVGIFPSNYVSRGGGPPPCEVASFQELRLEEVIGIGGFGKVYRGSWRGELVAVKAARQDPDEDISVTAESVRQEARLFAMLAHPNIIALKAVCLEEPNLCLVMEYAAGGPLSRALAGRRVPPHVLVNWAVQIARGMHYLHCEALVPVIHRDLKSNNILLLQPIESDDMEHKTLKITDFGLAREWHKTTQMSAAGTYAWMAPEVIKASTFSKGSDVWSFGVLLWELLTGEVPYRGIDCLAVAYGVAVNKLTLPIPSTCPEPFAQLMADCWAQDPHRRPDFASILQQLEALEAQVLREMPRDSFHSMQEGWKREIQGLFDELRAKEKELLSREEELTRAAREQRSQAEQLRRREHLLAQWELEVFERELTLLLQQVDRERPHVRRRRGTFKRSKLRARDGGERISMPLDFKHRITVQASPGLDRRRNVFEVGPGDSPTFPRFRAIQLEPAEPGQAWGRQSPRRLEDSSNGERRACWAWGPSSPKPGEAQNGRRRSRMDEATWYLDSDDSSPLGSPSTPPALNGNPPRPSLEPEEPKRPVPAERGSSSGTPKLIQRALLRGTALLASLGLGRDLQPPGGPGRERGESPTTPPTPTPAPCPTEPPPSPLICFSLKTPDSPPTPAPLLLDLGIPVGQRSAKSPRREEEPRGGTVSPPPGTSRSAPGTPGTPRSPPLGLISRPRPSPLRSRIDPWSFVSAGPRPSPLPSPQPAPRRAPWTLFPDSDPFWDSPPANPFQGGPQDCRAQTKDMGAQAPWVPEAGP
Excerpt: as §1

[23] = target: T23, panel of 371 human kinases (Homo sapiens, UniProt Q56UN5); conditions: VSK4/MAP3K19; 0.1 μM; 10 μM ATP; read-out: % Enzyme Activity (relative to DMSO controls)
T23 construct: purchased Reaction Biology Corp
Excerpt: as §1

[24] = target: T24, panel of 371 human kinases (Homo sapiens, UniProt Q16620); conditions: TRKB; 0.1 μM; 10 μM ATP; read-out: % Enzyme Activity (relative to DMSO controls)
T24 construct: purchased Reaction Biology Corp
T24 sequence (Q16620 32-822): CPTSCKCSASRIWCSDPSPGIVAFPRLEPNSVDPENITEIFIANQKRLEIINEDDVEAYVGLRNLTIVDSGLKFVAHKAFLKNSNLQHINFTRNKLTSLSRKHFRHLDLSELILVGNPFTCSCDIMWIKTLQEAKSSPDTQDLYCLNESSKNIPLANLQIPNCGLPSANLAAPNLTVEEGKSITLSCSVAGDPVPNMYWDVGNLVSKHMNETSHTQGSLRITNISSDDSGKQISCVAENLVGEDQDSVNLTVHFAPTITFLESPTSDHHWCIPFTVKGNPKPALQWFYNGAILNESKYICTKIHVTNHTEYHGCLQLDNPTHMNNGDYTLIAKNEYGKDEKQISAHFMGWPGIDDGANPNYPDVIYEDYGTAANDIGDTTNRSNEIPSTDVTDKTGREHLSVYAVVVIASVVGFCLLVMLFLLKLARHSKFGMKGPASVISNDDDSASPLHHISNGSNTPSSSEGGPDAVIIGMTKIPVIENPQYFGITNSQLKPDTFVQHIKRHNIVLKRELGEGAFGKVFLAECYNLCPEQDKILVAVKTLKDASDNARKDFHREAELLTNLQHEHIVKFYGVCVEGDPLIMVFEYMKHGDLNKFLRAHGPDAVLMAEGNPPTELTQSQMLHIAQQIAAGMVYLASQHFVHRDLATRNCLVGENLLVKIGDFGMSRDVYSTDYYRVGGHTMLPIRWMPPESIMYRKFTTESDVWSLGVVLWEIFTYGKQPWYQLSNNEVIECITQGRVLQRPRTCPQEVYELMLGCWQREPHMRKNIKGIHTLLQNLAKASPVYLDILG
Excerpt: as §1

SMILES | remaining activity at 0.1 µM [1] [%] | remaining activity at 0.1 µM ([2]; CDK9/cyclin K) [%] | remaining activity at 0.1 µM ([2]; CDK9/cyclin T1) [%] | remaining activity at 0.1 µM ([2]; CDK9/cyclin T2) [%] | remaining activity at 0.1 µM [3] [%] | remaining activity at 0.1 µM [4] [%] | remaining activity at 0.1 µM [5] [%] | remaining activity at 0.1 µM [6] [%] | remaining activity at 0.1 µM [7] [%] | remaining activity at 0.1 µM [8] [%] | remaining activity at 0.1 µM ([9]; CDK3/cyclin E2) [%] | remaining activity at 0.1 µM ([9]; CDK3/cyclin E) [%] | remaining activity at 0.1 µM [10] [%] | remaining activity at 0.1 µM [11] [%] | remaining activity at 0.1 µM [12] [%] | remaining activity at 0.1 µM [13] [%] | remaining activity at 0.1 µM [14] [%] | remaining activity at 0.1 µM [15] [%] | remaining activity at 0.1 µM [16] [%] | remaining activity at 0.1 µM [17] [%] | also measured
CN1CCN(Cc2ccc(-c3cnc4[nH]cc(-c5ccc6[nH]ccc6c5)c4c3)cc2)CC1 [Compound 1, 3-(1H-Indol-5-yl)-5-(4-((4-methylpiperazin-1-yl)methyl)phenyl)-1H-pyrrolo[2,3-b]pyridine, reference compound] | 50.1 | 79.8 | 86 | 112 | 71.1 | 69.2 | 89.5 | 114 | 68.2 | 110 | 92.6 | 92.9 | 92.3 | 101 | 100 | 101 | 105 | 35.8 | 76 | 101 | remaining activity at 0.1 µM [18]: 80.8%; remaining activity at 0.1 µM [19]: 107%; remaining activity at 0.1 µM [20]: 97.7%; remaining activity at 0.1 µM [21]: 80.1%; remaining activity at 0.025 µM ([22]; 0.025 μM, read-out: MLK3 activity remaining): 56.4%; remaining activity at 0.1 µM [22]: 56.4%; remaining activity at 0.1 µM [23]: 101%; remaining activity at 0.1 µM [24]: 59.3%
OCCN1CCN(Cc2ccc(-c3cnc4[nH]cc(-c5cccc(Cl)c5)c4c3)cc2)CC1 [Compound 12k, 2-(4-(4-(3-(3-Chlorophenyl)-1H-pyrrolo[2,3-b]pyridin-5-yl)benzyl)piperazin-1-yl)ethan-1-ol] | 89.9 | 88.5 | 88.7 | 99.1 | 55.6 | 75.4 | 91.3 | 86.6 | 76.7 | 110 | 90.2 | 97 | 102 | 94.3 | 112 | 99.7 | 101 | 39.8 | 40 | 86.7 | remaining activity at 0.1 µM [18]: 40.7%; remaining activity at 0.1 µM [19]: 95%; remaining activity at 0.1 µM [20]: 94.9%; remaining activity at 0.1 µM [21]: 76.5%; remaining activity at 0.1 µM [22]: 67%; remaining activity at 0.1 µM [23]: 107%; remaining activity at 0.1 µM [24]: 77.4%
